According to patent US8017767B2, “Sucralose composition” (Tate & Lyle Public Limited Company, priority 2000, dated 2011):

Test: Accelerated stability test (50° C.) with pH stability test of sucralose sample solution
Type: physicochemical
Details: for Days to pH Failure: WHIRLPAK polyethylene bags, failure = pH drop ≧1.0; for Days to pH Failure / Initial pH difference: Example 2, pH at crystallizer varied; for Initial pH difference: sample solution vs pH-adjusted water at time zero
Description: Label seven 6 oz. and seven 18 oz. WHIRLPAK® polyethylene bags with indelible marker for each batch being tested for stability. Accurately weigh 25 g±0.01 g of sucralose into each 6 oz. WHIRLPAK® polyethylene bag. Heat or impulse seal the 6 oz. bag to ensure air tightness. Cut off any excess polyethylene at the top of the bag above the seal. Place the 6 oz. sealed bag into the 18 oz. bag and heat or impulse seal the 18 oz. bag to ensure air tightness. Roll down the top of the 18 oz. bag above the seal and bend the metal ties to form hooks.
Place the prepared bags into an oven stabilized at 50° C.±0.5° C. by hanging them from racks by the bag hooks. The bags must be freely suspended and not touch anything. Record the time samples are placed into the oven.
The pH stability test is conducted on the sucralose at time zero (the day the samples are placed in the oven, before the sucralose is exposed to elevated temperature) and every 24 hours until the batch being tested fails the test.
Place approximately 100 ml of deionized water into a 150 ml beaker. Using 0.1 N hydrochloric acid and/or 0.1 N sodium hydroxide, adjust the pH of the water to be between 5.8 and 6.0. Record the pH reading.
Accurately weigh 5 g±0.001 g of the product to be tested and transfer it to a 50 ml volumetric flask. Dissolve and bring to the mark by adding pH-adjusted water. If the sample to be tested is one that has been exposed to heat, remove one bag of the batch being tested from the oven and allow it to cool to room temperature before opening and sampling.
Pour the solution into a 100 ml beaker containing a stir bar, and slowly stir the solution on a magnetic stirrer. Immerse the pH electrode in the sample, allow the pH reading to stabilize, and record the pH reading of the sample. If no pH drop is observed after all the bags have been tested, the experiment is void and the test must repeated with a larger number of bags.
Record (to one decimal place) the pH of both the pH-adjusted water used and the sample sucralose solution. Subtract the pH of the […]. Report the result as (−) for a pH drop and (+) for a pH gain, e.g.:
The sample fails the test if there is a pH drop of 1.0 pH unit or more. The pH stability of the batch is defined as the number of days until the pH drop between the sample solution and that of the pH adjusted water is ≧1.0.
Samples of sucralose were tested for stability using the above procedures, but using bags of different moisture permeability. All other experimental details were the same. The TYVEK®/polyethylene bags are permeable; the WHIRLPAK® bags are less permeable. The A8080 bag consists of aluminum foil laminated to low-density polyethylene, which makes it very impermeable to moisture.

| SMILES | Days to pH Failure (50° C.) [Days] | Days to pH Failure (Final Product Moisture Content) (50° C., final dried product, Example 3) [Days] | Days to pH Failure (Initial Moisture Content) (50° C., partially dried product at intermediate (initial) moisture content, Example 3) [Days] | Initial pH difference |
| --- | --- | --- | --- | --- |
| OC[C@H]1O[C@H](O[C@]2(CCl)O[C@H](CCl)[C@@H](O)[C@@H]2O)[C@H](O)[C@@H](O)[C@H]1Cl [Sample 36, 4,1′,6′-trichloro-4,1′,6′-trideoxy-galactosucrose] | 5 | 5 | 7 | +0.04 |
| OC[C@H]1O[C@H](O[C@]2(CCl)O[C@H](CCl)[C@@H](O)[C@@H]2O)[C@H](O)[C@@H](O)[C@H]1Cl [Sample 45, 4,1′,6′-trichloro-4,1′,6′-trideoxy-galactosucrose] | 7 |  |  | +0.17 |
